From US20080181971A1, “Combination Cancer Treatments Comprising Elsamitrucin and Other Agents” (priority 2007, published 2008)
Where two headings read alike, the source gives them in different places.

How the values were obtained:
Format in all cases: cell-based
[1] = test system: HT29 human colon carcinoma cell line; test: MTT growth inhibition assay, single agents and fixed-ratio combinations with elsamitrucin (Chou-Talalay, CalcuSyn), HT29
Protocol: (§1) These individual agents and their combinations were evaluated for in vitro activity against the HT29 colon carcinoma, SKMES non-small cell lung carcinoma, and Daudi B-lymphoblastic cell lines. Cell growth in 96-well microculture plates was determined with a semi-automated MTT assay. Efficacies of drug combinations were analyzed according to the methods of Chou and Talalay, utilizing CalcuSyn software. Twenty-one in vitro experiments were conducted to determine the individual and combined growth inhibitory activities of elsamitrucin and the ten selected agents in the three cell lines.
(§2) b. Cell Lines. The human HT29 colon carcinoma, SKMES non-small cell lung carcinoma, and Daudi B-lymphoblastic cell lines were originally obtained from ATCC (American Type Culture Collection). These cell lines have been maintained and stored as frozen stocks. […] The medium for Daudi cells was additionally supplemented with 1 mM sodium pyruvate.
(§3) c. Growth Inhibition Assay. Anti-proliferative activities against the HT29, SKMES, and Daudi cell lines were evaluated in vitro by the MTT assay. Cells (1,500-2,000 cells/well) were seeded in a 96-well microculture plate in 180 pL of medium/well. […] DMSO was present in all wells at a final concentration of 0.1%. […] When the appropriate cell density was attained in the control wells, the plates were centrifuged briefly, and 100 pL of the growth medium was removed. The cell cultures were incubated with 50 μL of MTT reagent (1 mg/mL in Dulbecco's phosphate-buffered saline) for 4 hr at 37° C. The resultant purple formazan precipitate was solubilized with 200 μL of 0.04 N HCl in isopropanol.
(§4) The results of each experiment were stored in Excel format.
(§5) d. Preliminary Experiments: Design and Data Analysis. […] The initial experiments utilized serial three-fold dilutions of the drugs to produce ten test concentrations over a broad concentration range. Based on the initial results, a narrower concentration range was selected, and serial 1:1.5 dilutions were utilized to produce ten test concentrations. Experiments were repeated as needed.
(§6) For assays that utilized lower dilution factors to produce narrower concentration ranges, the results were analyzed with both Prism and CalcuSyn (as described below) to allow comparison of the IC50 and Da, values. The results guided the selection of appropriate concentration ranges and concentration ratios for the combination experiments.
(§7) e. Combination Experiments: Design and Data Analysis. The fixed-ratio design of Chou was used for the combination experiments. For each experiment, the drug solutions were mixed at a ratio that was expected to provide approximately equipotent concentrations, and the mixture was serially diluted with medium containing 1% DMSO to yield 10× stock solutions of the test concentrations. […] Each agent was tested individually and in combination at seven concentrations. The concentration range selected for each assay was designed to bracket the concentrations that produced half-maximal effects (ED50) with each single agent and their mixture. The concentrations used for the single-drug assays were twice as high as their concentrations in the mixture. Each assay was performed in quadruplicate. For each drug combination, the individual agents and their mixture were assayed on the same 96-well plate. The effects of the individual drugs and their combinations were analyzed by the method of Chou and Talalay. The results of each experiment were entered into CalcuSyn (BIOSOFT) for dose-effect analysis.
(§8) where Acontrol and Adrug are the respective absorbances of vehicle control and drug-treated wells in the MIT assay.
(§9) where the slope, m, is related to the sigmoidicity of the dose-effect curve, with m=1, >1, and <1 indicating hyperbolic, sigmoidal, and reverse sigmoidal shapes, respectively.

[2] = test system: SKMES human non-small cell lung carcinoma cell line; test: MTT growth inhibition assay, single agents and fixed-ratio combinations with elsamitrucin (Chou-Talalay, CalcuSyn), SKMES; conditions: for IC50: Homo sapiens
Protocol: as §1, §2, §3, §4, §5, §6, §7, §8, §9

[3] = test system: Daudi human lymphoma cell line; test: MTT growth inhibition assay, single agents and fixed-ratio combinations with elsamitrucin (Chou-Talalay, CalcuSyn), Daudi; conditions: Homo sapiens, Daudi
Protocol: as §1, §2, §3, §4, §5, §6, §7, §8, §9

[4] = HT29, single agent on the same plate as the combination, read-out: Dm Value, Individually, Second Agent
[5] = Homo sapiens, HT-29, SPA-01 (HT29-e21), single agent, dilution 1:3, read-out: Prism IC50
[6] = Homo sapiens, HT-29, SPA-04 (HT29-e22), single agent, dilution 1:1.5, read-out: CalcuSyn Dm
[7] = Homo sapiens, HT-29, SPA-04 (HT29-e22), single agent, dilution 1:1.5, read-out: Prism IC50
[8] = Homo sapiens, HT-29, average of preliminary single-agent experiments, HT29, read-out: Average IC50, Dm value
[9] = SKMES growth inhibition, second agent alone, one value per plate (Experiment ID), read-out: Dm Value (95% Confidence Interval), Individually, Second Agent
[10] = SKMES, single agent on the same plate as the combination, read-out: Dm Value, Individually, Second Agent
[11] = SPA-02 (SKMES-e22), single agent, dilution 1:3, read-out: Prism IC50
[12] = SPA-03 (SKMES-e23), single agent, dilution 1:1.5, read-out: CalcuSyn Dm
[13] = SPA-03 (SKMES-e23), single agent, dilution 1:1.5, read-out: Prism IC50
[14] = SPA-09 (SKMES-e25), single agent, dilution 1:1.5, read-out: CalcuSyn Dm
[15] = SPA-09 (SKMES-e25), single agent, dilution 1:1.5, read-out: Prism IC50
[16] = average of preliminary single-agent experiments, SKMES, read-out: Average IC50, Dm value
[17] = Daudi growth inhibition, second agent alone, one value per plate, Table 8 (Supplement), read-out: Dm Value (95% Confidence Interval), Individually, Second Agent
[18] = Daudi growth inhibition, second agent alone, Table 8, read-out: Dm Value (95% Confidence Interval), Individually, Second Agent
[19] = SPA-05 (Daudi-e01), single agent, dilution 1:3, read-out: Prism IC50
[20] = SPA-08 (Daudi-e02), single agent, dilution 1:1.5, read-out: CalcuSyn Dm
[21] = SPA-08 (Daudi-e02), single agent, dilution 1:1.5, read-out: Prism IC50
[22] = SPA-15 (Daudi-e03), single agent, dilution 1:1.5 (elsamitrucin 1:1.33), read-out: CalcuSyn Dm
[23] = SPA-15 (Daudi-e03), single agent, dilution 1:1.5 (elsamitrucin 1:1.33), read-out: Prism IC50
[24] = average of preliminary single-agent experiments, read-out: Average IC50, Dm value
[25] = read-out: approximate Dm values for the second drugs as single agents
[26] = Homo sapiens, HT-29, HT29, single agent on the same plate as the combination, read-out: Dm Value, Individually, Second Agent
[27] = Homo sapiens, HT-29, SPA-10 (HT29-e24), single agent, dilution 1:1.5, read-out: CalcuSyn Dm
[28] = Homo sapiens, HT-29, SPA-10 (HT29-e24), single agent, dilution 1:1.5, read-out: Prism IC50

Structure (SMILES) | IC50 [1, 5] [nM] | IC50 [1, 6] [nM] | IC50 [1, 7] [nM] | IC50 [1, 8] [nM] | IC50 [2, 9] [nM] | IC50 [2, 10] [nM] | IC50 [2, 11] [nM] | IC50 [2, 12] [nM] | IC50 [2, 13] [nM] | IC50 [2, 14] [nM] | IC50 [2, 15] [nM] | IC50 [2, 16] [nM] | IC50 [3, 17] [nM] | IC50 [3, 18] [nM] | IC50 [3, 19] [nM] | IC50 [3, 20] [nM] | IC50 [3, 21] [nM] | IC50 [3, 24] [nM] | IC50 [3, 25] [nM] | IC50 [1, 26] [nM] | other results
O=NN(CCCl)C(=O)NCCCl [Carmustine, carmustine] | > 10000 | 60000 | 72000 | 66000 | 69800 | 69800 | 1440 | – | – | ~96000 | ~78000 | – | – | 42000 | – | 25000 | 28000 | 24900 | ~42000 | – | IC50 [1, 4]: 128000 nM; IC50 [3, 22]: 25800 nM; IC50 [3, 23]: 20800 nM
COc1cc([C@@H]2c3cc4c(cc3[C@@H](O[C@@H]3O[C@@H]5CO[C@@H](C)O[C@H]5[C@H](O)[C@H]3O)[C@H]3COC(=O)[C@H]23)OCO4)cc(OC)c1O [Etoposide, etoposide] | ~900 | 766 | 698 | 732 | 237 | 237 | 199 | 317 | 287 | – | – | 268 | 47 | 47 | 20.2 | 23 | 31 | 25 | ~47 | 710 | –
CC[C@@]1(O)C(=O)OCc2c1cc1n(c2=O)Cc2cc3ccccc3nc2-1 [Camptothecin, camptothecin] | 16 | 26 | 23 | 153 | 8 | 8 | 6 | 11 | 11 | – | – | 9 | 9.3 | 9.3 | 8.5 | 11 | 9.5 | 10 | ~9.3 | – | IC50 [1, 27]: 148 nM; IC50 [1, 28]: 550 nM; increase of Dm in the combination ([2]; SKMES, in combination with elsamitrucin versus single agent): less than 1.5 fold
O=c1[nH]cc(F)c(=O)[nH]1 [5-Fluorouracil, 5-fluorouracil] | ~3300 | 134 | 280 | 2040 | 4350 | 4350 | 438 | 5200 | ~3300 | 5580 | 3130 | 3590 | 11700 | 11700 | ~9200 | 11100 | 12700 | 12200 | ~11700 | – | change of Dm in the mixture versus single agent ([1]; HT29): increased only slightly; IC50 [1, 4]: 786 nM; IC50 [1, 27]: 4200 nM; IC50 [1, 28]: 1650 nM; IC50 [3, 22]: 13200 nM; IC50 [3, 23]: 11900 nM

The next lines start with results.

IC50 [1, 5] [nM] | IC50 [1, 6] [nM] | IC50 [1, 7] [nM] | IC50 [1, 8] [nM] | IC50 [2, 9] [nM] | IC50 [2, 10] [nM] | IC50 [2, 11] [nM] | IC50 [2, 12] [nM] | IC50 [2, 13] [nM] | IC50 [2, 14] [nM] | IC50 [2, 15] [nM] | IC50 [2, 16] [nM] | IC50 [3, 17] [nM] | IC50 [3, 18] [nM] | IC50 [3, 19] [nM] | IC50 [3, 20] [nM] | IC50 [3, 21] [nM] | IC50 [3, 24] [nM] | IC50 [3, 25] [nM] | IC50 [1, 26] [nM] | Structure (SMILES) | other results
40 | 57 | 29 | 42 | 83 | 56 | 7 | ~200 | ~50 | 21 | 23 | 17 | 9 | 9 | ~1 | ~33 | ~9.5 | 5 | ~9 | – | COc1cccc2c1C(=O)c1c(O)c3c(c(O)c1C2=O)C[C@@](O)(C(=O)CO)C[C@@H]3O[C@H]1C[C@H](N)[C@H](O)[C@H](C)O1 [Doxorubicin, doxorubicin] | IC50 [1, 4]: 48 nM; IC50 [3, 22]: 5 nM; IC50 [3, 23]: 5 nM
12 | 29 | 23 | 21 | 24 | 16 | – | 21.5 | 19.5 | – | – | 21 | 3.9 | 3.9 | 3.7 | 3.4 | 4 | 4 | ~3.9 | 17.8 | CC(C)C[C@H](NC(=O)[C@H](Cc1ccccc1)NC(=O)c1cnccn1)B(O)O [Bortezomib, bortezomib] | –
25.4 | 23 | 18 | 22 | 12 | 8.2 | ~0.6 | – | – | 9.5 | 8.5 | 10 | 45 | 45 | ~20 | 50 | 49 | 50 | ~45 | 22 | CN(Cc1cnc2nc(N)nc(N)c2n1)c1ccc(C(=O)N[C@@H](CCC(=O)O)C(=O)O)cc1 [Methotrexate, methotrexate] | IC50 ([2]; SPA-14 (SKMES-e27), single agent, dilution 1:1.5 (carmustine also 1:2, r12), read-out: CalcuSyn Dm): 10.7 nM; IC50 ([2]; SPA-14 (SKMES-e27), single agent, dilution 1:1.5 (carmustine also 1:2, r12), read-out: Prism IC50): 10.4 nM
4.6 | – | 10 | 5 | 1.8 | 2.8 | 1.5 | 1.8 | 2.5 | – | – | 2 | 1.2 | 1.2 | 0.6 | 1.3 | 1.4 | 1 | ~1.2 | 4 | Nc1ccn([C@@H]2O[C@H](CO)[C@@H](O)C2(F)F)c(=O)n1 [Gemcitabine, gemcitabine] | IC50 [1, 27]: 6 nM; IC50 [1, 28]: 4 nM
